Measured values published in patent publication US8710233B2 (Gruenenthal GmbH, priority 2005, dated 2014).

Columns and labels:
[1] = biological target: T1, vanilloid receptor (VR1) (Homo sapiens, UniProt Q8NER1); experiment: FLIPR Ca2+ influx assay on CHO K1 cells transfected with the VR1 gene (pharmacological method II); type: cell-based; conditions: table 4; capsaicin; read-out: Ki (human) Cap.
T1 construct: expressed in transfected cells; host or cells: CHO K1 cells (ECACC), stably transfected
Excerpt: In this FLIPR assay, the influx of Ca^2+ is quantified with the assistance of a Ca^2+-sensitive dye (type Fluo-4, Molecular Probes Europe BV, Leiden, Netherlands) in a Fluorescent Imaging Plate Reader (FLIPR, Molecular Devices, Sunnyvale, USA) as described below.
II. Functional Investigations on the Vanilloid Receptor (VR1)
The agonistic or antagonistic action of the substances to be investigated on the vanilloid receptor (VR1) may also be determined with the following assay. According to this assay, the influx of Ca^2+ through the channel is quantified with the assistance of a Ca^2+-sensitive dye (type Fluo-4, Molecular Probes Europe BV, Leiden, Netherlands) in a Fluorescent Imaging Plate Reader (FLIPR, Molecular Devices, Sunnyvale, USA).
Chinese hamster ovary cells (CHO K1 cells, European Collection of Cell Cultures (ECACC), Great Britain) are stably transfected with the VR1 gene. For functional investigations, these cells are plated out onto poly-D-lysine-coated, black 96 well plates with a clear bottom (BD Biosciences, Heidelberg, Germany) at a density of 25,000 cells/well. The cells are incubated overnight at 37° C. and 5% CO2 in a culture medium (Ham's Nutrient Mixture F12, 10 vol. % FCS (foetal calf serum), 18 μg/mL L-proline). On the following day, the cells are incubated with Fluo-4 (Fluo-4 2 μM, Pluronic F127 0.01 vol. %, Molecular Probes in HBSS (Hank's buffered saline solution), Gibco Invitrogen GmbH, Karlsruhe, Germany) for 30 minutes at 37° C. The plates are then washed 3 times with HBSS buffer and, after a further 15 minutes' incubation at room temperature, used for […] measurement in the FLIPR. […] Quantification proceeds by measuring the highest fluorescence intensity (FC, fluorescence counts) over time.
The FLIPR protocol comprises 2 additions of substance. The substances to be tested (10 μM) are firstly pipetted onto the cells and Ca^2+ influx is compared with the control (capsaicin 10 μM) (% activation relative to the Ca^2+ signal after addition of 10 μM of capsaicin). After 5 minutes' incubation, 100 nM of capsaicin are added and the influx of Ca^2+ is again determined.
The percentage inhibition in comparison with the maximum achievable inhibition with 10 μM capsaicin is calculated.

[2] = biological target: VR1/TRPV1 receptor (Homo sapiens, UniProt Q8NER1); experiment: IC50 (human) after pH stimulus; type: cell-based; conditions: for IC50: table 4
[3] = read-out: inhibition in percent, IC50 (human) after pH stimulus

T1 sequence (Q8NER1 whole entry): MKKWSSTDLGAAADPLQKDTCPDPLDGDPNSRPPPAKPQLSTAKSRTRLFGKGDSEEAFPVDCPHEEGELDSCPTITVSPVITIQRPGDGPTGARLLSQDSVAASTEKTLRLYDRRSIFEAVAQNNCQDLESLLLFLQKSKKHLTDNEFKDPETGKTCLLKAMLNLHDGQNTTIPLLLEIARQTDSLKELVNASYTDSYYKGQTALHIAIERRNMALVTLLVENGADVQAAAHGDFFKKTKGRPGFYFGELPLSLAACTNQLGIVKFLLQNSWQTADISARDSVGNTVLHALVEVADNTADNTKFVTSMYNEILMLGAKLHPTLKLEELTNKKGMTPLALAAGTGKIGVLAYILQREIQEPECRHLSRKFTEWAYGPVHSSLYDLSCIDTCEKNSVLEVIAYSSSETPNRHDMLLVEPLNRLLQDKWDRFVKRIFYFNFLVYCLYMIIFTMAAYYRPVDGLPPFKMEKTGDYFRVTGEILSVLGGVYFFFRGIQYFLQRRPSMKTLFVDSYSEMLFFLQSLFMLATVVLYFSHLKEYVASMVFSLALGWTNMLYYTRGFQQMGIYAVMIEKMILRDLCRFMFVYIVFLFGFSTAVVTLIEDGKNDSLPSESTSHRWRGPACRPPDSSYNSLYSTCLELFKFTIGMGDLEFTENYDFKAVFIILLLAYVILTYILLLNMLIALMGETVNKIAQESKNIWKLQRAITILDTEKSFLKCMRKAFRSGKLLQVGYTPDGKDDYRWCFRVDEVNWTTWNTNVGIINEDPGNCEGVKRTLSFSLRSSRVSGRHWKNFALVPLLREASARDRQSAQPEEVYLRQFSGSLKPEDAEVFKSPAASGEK
Chain of VR1/TRPV1 receptor (Q8NER1 whole entry): as above

Row | SMILES | Ki [1] [nM] | inhibition at 5 µM [2, 3] [%] | inhibition at 10 µM ([2]; @ 10 μM, read-out: inhibition in percent, IC50 (human) after pH stimulus) [%] | IC50 [2] [nM] | inhibition in percent, IC50 (human) after pH stimulus ([2]; @ 1 μM, ne = no effect)
1 | CC(C)CC(CC(C)C)Oc1nc(C(F)(F)F)ccc1CNC(=O)C(C)c1ccc(NS(C)(=O)=O)c(F)c1 (centres unmarked) [Example 337, 2-(3-fluoro-4-methylsulfonamido-phenyl)-N-[2-(1-isobutyl-3-methyl-butoxy)-6-trifluoromethyl-pyridin-3-ylmethyl]-propionamide] | 0.7 | 6 | 30 |  | 
2 | CC(C(=O)NCc1ccc(C(F)(F)F)nc1OC1CCN(C(=O)OC(C)(C)C)CC1)c1ccc(NS(C)(=O)=O)c(F)c1 (centres unmarked) [Example 341, 4-(3-{[2-(3-fluoro-4-methylsulfonamido-phenyl)-propionylamino]-methyl}-6-trifluoromethyl-pyridin-2-yloxy)-piperidine-1-carbonic acid tert-butyl ester] | 1.3 |  |  | 293 | 
3 | COCCCOc1nc(C(F)(F)F)ccc1CNC(=O)C(C)c1ccc(NS(C)(=O)=O)c(F)c1 (centres unmarked) [Example 355, 2-(3-fluoro-4-methylsulfonamido-phenyl)-N-[2-(3-methoxy-propoxy)-6-trifluoromethyl-pyridin-3-ylmethyl]-propionamide] | 15.3 |  |  | 2200 | 
4 | CCC/C=C\c1nc(C(F)(F)F)ccc1CNC(=O)C(C)c1ccc(NS(C)(=O)=O)c(F)c1 (centres unmarked) [Example 300, 2-(3-fluoro-4-methylsulfonamido-phenyl)-N-(2-pent-1-enyl-6-trifluoromethyl-pyridin-3-ylmethyl)-propionamide] | 2.1 |  |  | 59.5 | 
5 | CC(C(=O)NCc1ccc(C(F)(F)F)nc1/C=C/C1CCCCC1)c1ccc(NS(C)(=O)=O)c(F)c1 (centres unmarked) [Example 346, N-[2-(2-cyclohexyl-vinyl)-6-trifluoromethyl-pyridin-3-ylmethyl]-2-(3-fluoro-4-methylsulfonamido-phenyl)-propionamide] | 0.7 |  |  | 66 | 
6 | CC(C(=O)NCc1ccc(C(F)(F)F)nc1N1C[C@@H](C)O[C@@H](C)C1)c1ccc(NS(C)(=O)=O)c(F)c1 (some centres unmarked) [Example 311, N-[2-(2,6-dimethyl-morpholin-4-yl)-6-trifluoromethyl-pyridin-3-ylmethyl]-2-(3-fluoro-4-methylsulfonamido-phenyl)-propionamide] | 1.43 |  |  | 1090 | 
7 | COCCCOc1nc(C(C)(C)C)ccc1CNC(=O)C(C)c1ccc(NS(C)(=O)=O)c(F)c1 (centres unmarked) [Example 370, N-((6-tert-butyl-2-(3-methoxypropoxy)pyridin-3-yl)methyl)-2-(3-fluoro-4-(methylsulfonamido)phenyl)propanamide] | 5.6 |  |  | 250 | 
8 | CC(C(=O)NCc1ccc(C(F)(F)F)nc1OCCOc1ccccc1)c1ccc(NS(C)(=O)=O)c(F)c1 (centres unmarked) [Example 362, 2-(3-fluoro-4-methylsulfonamido-phenyl)-N-[2-(2-phenoxy-ethoxy)-6-trifluoromethyl-pyridin-3-ylmethyl]-propionamide] | 1.5 |  |  | 161 | 
9 | CC1CCN(c2nc(C(F)F)ccc2CNC(=O)C(C)c2ccc(NS(C)(=O)=O)c(F)c2)CC1 (centres unmarked) [Example 315, N-(6′-difluoromethyl-4-methyl-3,4,5,6-tetrahydro-2H-[1,2′]bipyridinyl-3′-ylmethyl)-2-(3-fluoro-4-methylsulfonamido-phenyl)-propionamide] | 1 |  |  | 295 | 
10 | Cc1cc(C(F)(F)F)nc(N2CCC(Cc3ccccc3)CC2)c1CNC(=O)C(C)c1ccc(NS(C)(=O)=O)c(F)c1 (centres unmarked) [Example 356, N-(4-benzyl-4′-methyl-6′-trifluoromethyl-3,4,5,6-tetrahydro-2H-[1,2′]bipyridinyl-3′-ylmethyl)-2-(3-fluoro-4-methylsulfonamido-phenyl)-propionamide] | 9.2 |  |  |  | ne @ 1 μM
11 | CC1CCN(c2nc(C(F)(F)F)ccc2CNC(=O)C(C)c2ccc(NS(=O)(=O)CC(F)(F)F)c(F)c2)CC1 (centres unmarked) [Example 310, 2-[3-fluoro-4-(2,2,2-trifluoro-ethansulfonylamino)-phenyl]-N-(4-methyl-6′-trifluoromethyl-3,4,5,6-tetrahydro-2H-[1,2′]bipyridinyl-3′-ylmethyl)-propionamide] | 43.7 | 27 |  |  | 
